From ChEMBL document CHEMBL5608251, “Virtual Screening and Molecular Docking: Discovering Novel METTL3 Inhibitors” (ACS Med Chem Lett, 2024)

Columns and labels:
[1] = molecular target: METTL3/METTL14 (Homo sapiens) (UniProt Q86U44+Q9HCE5); experiment: Inhibition of METTL3/METTL14 (unknown origin) using SAM as substrate at 25 uM incubated for 360 mins by luminescence based assay relative to control; format: protein-complex assay
[2] = molecular target: METTL3/METTL14 (Homo sapiens, UniProt Q86U44); experiment: Inhibition of recombinant METTL3/METTL14 (unknown origin) by radioactivity based assay; format: protein-complex assay
[3] = system: PC-9; experiment: Antiproliferative activity against human PC-9 cells assessed as inhibition of cell growth incubated for 72 hrs by CCK-8 assay; format: functional, cell-based; settings: PC-9, 72 h
[4] = system: NCI-H1975; experiment: Antiproliferative activity against human NCI-H1975 cells assessed as inhibition of cell growth incubated for 72 hrs by CCK-8 assay; format: functional, cell-based; settings: NCI-H1975, 72 h

Sequence of METTL3/METTL14 (Q86U44 whole entry): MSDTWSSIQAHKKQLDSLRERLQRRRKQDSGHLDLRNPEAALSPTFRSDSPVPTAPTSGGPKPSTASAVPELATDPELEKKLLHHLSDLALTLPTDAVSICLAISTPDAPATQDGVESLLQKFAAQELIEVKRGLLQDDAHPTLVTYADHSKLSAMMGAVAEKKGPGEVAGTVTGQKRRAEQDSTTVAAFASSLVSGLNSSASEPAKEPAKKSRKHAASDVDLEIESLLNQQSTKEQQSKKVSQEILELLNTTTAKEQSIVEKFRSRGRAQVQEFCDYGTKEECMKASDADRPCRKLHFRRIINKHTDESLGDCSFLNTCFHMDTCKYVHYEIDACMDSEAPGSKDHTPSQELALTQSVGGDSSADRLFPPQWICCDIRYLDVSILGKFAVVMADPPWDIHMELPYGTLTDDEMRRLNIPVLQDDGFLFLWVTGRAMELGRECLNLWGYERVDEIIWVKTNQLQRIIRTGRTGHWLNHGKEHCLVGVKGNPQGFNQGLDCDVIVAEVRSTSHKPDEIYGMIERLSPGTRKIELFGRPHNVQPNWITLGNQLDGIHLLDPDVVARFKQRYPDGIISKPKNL
Sequence of METTL3/METTL14 (Q9HCE5 whole entry, further chain): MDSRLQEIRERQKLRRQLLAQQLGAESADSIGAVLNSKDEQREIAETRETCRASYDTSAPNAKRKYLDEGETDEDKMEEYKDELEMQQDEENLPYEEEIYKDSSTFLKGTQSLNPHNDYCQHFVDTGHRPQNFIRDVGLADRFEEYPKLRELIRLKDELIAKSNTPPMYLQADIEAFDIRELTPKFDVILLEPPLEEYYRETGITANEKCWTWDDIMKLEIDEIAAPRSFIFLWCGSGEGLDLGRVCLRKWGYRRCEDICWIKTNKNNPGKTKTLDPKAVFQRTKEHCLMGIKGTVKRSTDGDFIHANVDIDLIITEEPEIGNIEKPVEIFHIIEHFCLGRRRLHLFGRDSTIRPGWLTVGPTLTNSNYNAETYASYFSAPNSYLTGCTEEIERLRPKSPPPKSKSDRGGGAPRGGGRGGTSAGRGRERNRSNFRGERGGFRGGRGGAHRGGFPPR

| inhibition [1] [%] | SMILES | other results |
| --- | --- | --- |
| 36.3 | O=C(CCSc1nc(-c2ccco2)cc(C(F)(F)F)n1)NCc1ccco1 |  |
| 22.4 | COc1ccc(NC(=O)CCn2ccc(=O)[nH]c2=O)cc1 |  |
| 24.1 | COc1ccc(NC(=O)Cn2cc(C(=O)c3ccc(C)cc3)c(=O)c3cc(OC)c(OC)cc32)cc1OC |  |
| 38.9 | CC(=O)Nc1ccc(C)cc1NC(=O)CCC1COc2ccccc2O1 (stereo not given) |  |
| 3.39 | CC(=O)c1ccc(NC(=O)CSc2ncc(CO)n2Cc2ccc(F)cc2)cc1 |  |
|  | Nc1ncnc2c1ncn2[C@@H]1O[C@H](C[C@@H](N)CC[C@H](N)C(=O)O)[C@@H](O)[C@H]1O [SINEFUNGIN] | IC50 [2]: 2.36 µM |
| 35.3 | O=C(CNC(=O)c1ccco1)N/N=C/c1cc(Br)cc(Br)c1OC(=O)c1cccc(F)c1 |  |
| 65.6 | O=C1c2ccc(Oc3cccc(Oc4ccc5c(c4)C(=O)N(c4ccc(O)cc4)C5=O)c3)cc2C(=O)N1c1ccc(O)cc1 | IC50 [3]: 216 µM; IC50 [4]: 180 µM |
| 25.1 | COc1ccc(C(=O)Nc2cccc(OCc3cc(=O)n4ccc(C)cc4c3)c2)cc1OC |  |
| 32.1 | CCn1c(SCC(=O)Nc2ccc(C)c(F)c2)nc2c3cc(OC)ccc3n(C)c2c1=O |  |
| 6.31 | O=C(CCCn1c(SCC(=O)Nc2ccc(F)cc2)nc2c(sc3ccccc32)c1=O)NCCO |  |
| 30.5 | COc1ccc(NC(=O)CCn2ccc(=O)[nH]c2=O)c(O)c1 |  |
| 32.5 | COc1ccc(-c2nc(C[S+]([O-])CC(=O)NCc3ccco3)c(C)o2)cc1 (stereo not given) |  |
| 46.2 | CCOC(=O)CC(=O)CSc1nc2c(sc(=S)n2-c2ccc(C(=O)OCC)cc2)c2nc3ccccc3n12 | IC50 [3]: 213 µM; IC50 [4]: 197 µM |
| 36.7 | CCn1c(N2CCCC(C(=O)Nc3ccc4[nH]c(=O)[nH]c4c3)C2)cc(=O)n(C)c1=O (stereo not given) |  |
| 31.1 | CNC(=O)Cn1c(CO)cnc1SCC(=O)Nc1ccc(C(C)=O)cc1 |  |
